In PubChem BioAssay (NCI):
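Assay format: 96-well plates, 48-hour exposure. TGI: total growth inhibition.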

Columns and labels:
Test in all cases: inhibition of tumour cell growth, NCI panel, 48 h
[1] = test system: SNB-75 CNS
[2] = test system: TK-10 renal
[3] = test system: HOP-92 NSCLC
[4] = test system: UACC-257 melanoma
[5] = test system: HCT-15 colon
[6] = test system: SN12C renal
[7] = test system: CAKI-1 renal
[8] = test system: U251 CNS
[9] = test system: OVCAR-5 ovarian
[10] = test system: HT29 colon
[11] = test system: IGROV1 ovarian
[12] = test system: ACHN renal
[13] = test system: OVCAR-8 ovarian
[14] = test system: SR leukemia
[15] = test system: CCRF-CEM leukemia
[16] = test system: HL-60(TB) leukemia
[17] = test system: DLD-1 colon
[18] = test system: HCC-2998 colon
[19] = test system: SF-539 CNS
[20] = test system: LOX IMVI melanoma

SMILES | TGI [1] [µM] | TGI [2] [µM] | TGI [3] [µM] | TGI [4] [µM] | TGI [5] [µM] | TGI [6] [µM] | TGI [7] [µM] | TGI [8] [µM] | TGI [9] [µM] | TGI [10] [µM] | TGI [11] [µM] | TGI [12] [µM] | TGI [13] [µM] | TGI [14] [µM] | TGI [15] [µM] | TGI [16] [µM] | TGI [17] [µM] | TGI [18] [µM] | TGI [19] [µM] | TGI [20] [µM]
C/C(CC(=O)NC1=CC=C(NC(=O)C/C(C)=N\Nc2ccccc2)CC1)=N/Nc1ccccc1 | > 100 | > 100 | > 100 | > 100 | > 100 | > 100 | > 100 | > 100 | > 100 | > 100 | > 100 | > 100 | > 100 | > 100 | > 100 | > 100 | > 100 | > 100 | > 100 | > 100
Brc1ccc2c(c1)C1C(CO2)C(c2ccccc2)=NN1c1ccccc1 (stereo not drawn) | > 100 | > 100 | > 100 | > 100 | – | – | – | > 100 | > 100 | > 100 | > 100 | > 100 | > 100 | – | > 100 | > 100 | > 100 | > 100 | – | > 100
N#CC(C(=N/NC(N)=S)/C(=N/NC(N)=S)C(C#N)c1ccc(Cl)cc1)c1ccc(Cl)cc1 (stereo not drawn) | 92.1 | > 100 | > 100 | > 100 | > 100 | > 100 | – | > 100 | > 100 | > 100 | > 100 | > 100 | > 100 | – | 97.9 | – | > 100 | > 100 | > 100 | > 100
COc1ccc(NC(=O)CC(=O)N/N=C/c2ccc(N(CCC#N)S(=O)(=O)c3ccccc3)cc2)cc1 | – | > 100 | > 100 | > 100 | > 100 | – | > 100 | > 100 | > 100 | > 100 | > 100 | > 100 | > 100 | > 100 | > 100 | > 100 | > 100 | > 100 | – | > 100
CN(C)CC1(Cc2ccccc2)CCC(Cc2ccccc2)C1=O (stereo not drawn) | 30 | 26.7 | 40 | 29.1 | 13.3 | 23.9 | 23.3 | 31.8 | 32.8 | 28.6 | 24.1 | 29.7 | 18.2 | 33.3 | 12.5 | 12.5 | 8.26 | 21.4 | 33.5 | 15.7
CCOC(=O)c1[nH]c(CN(C)Cc2[nH]c(C(=O)OCC)c(C)c2C(=O)OCc2ccccc2)c(C(=O)OCc2ccccc2)c1C | 19.3 | 43.8 | 8.73 | > 100 | > 100 | 34.5 | 23.8 | 34 | 44.8 | 8.01 | > 100 | > 100 | > 100 | > 100 | > 100 | > 100 | > 100 | > 100 | 21.3 | > 100
CSc1nc2c(c(O)c(C)c(=O)n2C2OCC(OC(C)=O)C(OC(C)=O)C2OC(C)=O)c(=O)n1C (stereo not drawn) | > 100 | > 100 | > 100 | > 100 | > 100 | > 100 | > 100 | > 100 | > 100 | > 100 | > 100 | > 100 | > 100 | > 100 | > 100 | > 100 | > 100 | – | > 100 | > 100
COc1cc(C)c(C)c(OC(=O)c2c(C)c(C)c(OC)c(C)c2OC)c1C | 36 | > 100 | 53.9 | 78.6 | 18.5 | > 100 | 79.6 | 21 | 91.4 | 23.5 | > 100 | > 100 | > 100 | 22 | 62 | 32.6 | > 100 | 53.1 | 38.6 | 20.9
CCC1(N=[N+]=[N-])C(=O)c2ccccc2N(c2ccccc2)C1=O (stereo not drawn) | > 100 | > 100 | > 100 | > 100 | > 100 | > 100 | > 100 | > 100 | > 100 | > 100 | > 100 | > 100 | > 100 | > 100 | > 100 | > 100 | > 100 | > 100 | > 100 | > 100
CCCCCCCCCCCCn1[nH]c(C)c(C(=S)SCCCCCCCC)c1=O | > 100 | > 100 | > 100 | > 100 | > 100 | > 100 | > 100 | > 100 | > 100 | > 100 | > 100 | > 100 | > 88.1 | > 39.9 | > 78.3 | > 75.7 | > 94.6 | > 100 | > 100 | > 100
CCCCNC(=O)CCN(C(=O)O)S(=O)(=O)c1ccc(NC(=O)c2ccccc2)cc1 | > 100 | > 100 | > 100 | > 100 | > 100 | > 100 | > 100 | > 100 | > 100 | 49.8 | > 100 | > 100 | > 100 | > 100 | > 100 | > 100 | > 100 | > 100 | > 100 | 34.6
Cn1nc2ccc3nccc(N(CCO)CCO)c3c2n1 | > 100 | > 100 | > 100 | > 100 | > 100 | > 100 | > 100 | > 100 | > 100 | > 100 | > 100 | > 100 | > 100 | > 100 | > 100 | > 100 | > 100 | > 100 | > 100 | > 100
